Tests used:
[1] = Lipophilicity, log D of the compound at pH 7.4; format: physicochemical; conditions: buffer
Glucocorticoid receptor = target: T1, Glucocorticoid receptor (Rattus norvegicus, UniProt P06536); assay: Agonist activity at glucocorticoid receptor in rat PBMC assessed as inhibition of LPS-stimulated TNF-alpha release
T1 sequence (P06536 whole entry): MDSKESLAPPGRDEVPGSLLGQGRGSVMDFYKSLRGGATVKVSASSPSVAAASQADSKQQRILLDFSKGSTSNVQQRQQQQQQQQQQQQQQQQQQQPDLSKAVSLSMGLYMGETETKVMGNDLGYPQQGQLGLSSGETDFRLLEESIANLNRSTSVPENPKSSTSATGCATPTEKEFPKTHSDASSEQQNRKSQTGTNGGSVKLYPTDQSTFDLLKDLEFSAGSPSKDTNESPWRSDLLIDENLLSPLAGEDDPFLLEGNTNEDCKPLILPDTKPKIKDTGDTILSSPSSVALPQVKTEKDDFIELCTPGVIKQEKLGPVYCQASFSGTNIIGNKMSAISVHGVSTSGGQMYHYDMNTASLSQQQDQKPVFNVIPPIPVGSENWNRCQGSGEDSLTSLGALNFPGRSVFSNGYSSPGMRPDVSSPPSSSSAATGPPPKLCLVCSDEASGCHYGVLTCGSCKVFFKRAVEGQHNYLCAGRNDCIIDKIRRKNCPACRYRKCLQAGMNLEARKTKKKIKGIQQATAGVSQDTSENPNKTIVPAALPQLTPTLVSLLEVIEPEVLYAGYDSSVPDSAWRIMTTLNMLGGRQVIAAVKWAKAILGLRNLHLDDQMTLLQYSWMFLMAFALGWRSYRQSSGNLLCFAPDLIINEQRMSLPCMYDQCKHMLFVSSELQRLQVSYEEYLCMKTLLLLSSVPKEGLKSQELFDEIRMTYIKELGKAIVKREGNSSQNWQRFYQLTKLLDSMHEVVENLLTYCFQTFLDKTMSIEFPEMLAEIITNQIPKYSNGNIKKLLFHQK

Androgen receptor = target: T2, Androgen receptor (Homo sapiens, UniProt P10275); assay: Binding affinity to androgen receptor (unknown origin)
T2 sequence (P10275 whole entry): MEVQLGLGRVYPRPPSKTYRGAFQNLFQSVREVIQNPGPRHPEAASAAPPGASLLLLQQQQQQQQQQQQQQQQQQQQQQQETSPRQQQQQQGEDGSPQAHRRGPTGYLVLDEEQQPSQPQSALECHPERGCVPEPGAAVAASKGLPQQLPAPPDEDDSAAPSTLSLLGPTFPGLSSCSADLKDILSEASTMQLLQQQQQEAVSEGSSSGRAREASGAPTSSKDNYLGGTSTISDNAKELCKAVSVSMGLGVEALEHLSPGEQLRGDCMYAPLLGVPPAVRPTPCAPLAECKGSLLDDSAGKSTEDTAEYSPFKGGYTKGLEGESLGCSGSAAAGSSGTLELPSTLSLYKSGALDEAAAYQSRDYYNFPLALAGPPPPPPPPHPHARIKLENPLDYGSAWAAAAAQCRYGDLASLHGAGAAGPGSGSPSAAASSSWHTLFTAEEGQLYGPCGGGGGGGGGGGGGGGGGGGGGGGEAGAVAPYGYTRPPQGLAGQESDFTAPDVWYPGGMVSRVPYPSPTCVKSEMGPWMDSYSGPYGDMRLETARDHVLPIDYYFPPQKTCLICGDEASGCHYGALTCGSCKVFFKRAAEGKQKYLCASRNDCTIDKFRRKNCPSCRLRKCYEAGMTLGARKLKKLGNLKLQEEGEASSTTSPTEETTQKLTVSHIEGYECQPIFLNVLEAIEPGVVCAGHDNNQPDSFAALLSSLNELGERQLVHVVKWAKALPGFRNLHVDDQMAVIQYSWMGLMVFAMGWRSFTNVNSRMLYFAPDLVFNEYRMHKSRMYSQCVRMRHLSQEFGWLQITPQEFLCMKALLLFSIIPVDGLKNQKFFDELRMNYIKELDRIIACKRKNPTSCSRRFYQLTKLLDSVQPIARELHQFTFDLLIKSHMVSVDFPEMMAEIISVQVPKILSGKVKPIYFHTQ

[2] = Thermodynamic solubility of the crystalline compound in 0.1 M phosphate buffer at pH 7.4 at 25 degC after 24 hrs; format: physicochemical; conditions: read-out: Therm_solubility
Plasma = assay: Fraction unbound in human plasma; format: ADME, cell-free
Hepatocyte [3] = assay: Intrinsic clearance in rat hepatocytes; format: ADME, cell-based
Hepatocyte [4] = assay: Intrinsic clearance in human hepatocytes; format: ADME, cell-based
Cytochrome P450 2D6 = Cytochrome P450 2D6 (Homo sapiens, UniProt P10635); assay: Inhibition of CYP2D6 (unknown origin); format: ADME
Cytochrome P450 1A2 = target: T3, Cytochrome P450 1A2 (Homo sapiens, UniProt P05177); assay: Inhibition of CYP1A2 (unknown origin); format: ADME
T3 sequence (P05177 whole entry): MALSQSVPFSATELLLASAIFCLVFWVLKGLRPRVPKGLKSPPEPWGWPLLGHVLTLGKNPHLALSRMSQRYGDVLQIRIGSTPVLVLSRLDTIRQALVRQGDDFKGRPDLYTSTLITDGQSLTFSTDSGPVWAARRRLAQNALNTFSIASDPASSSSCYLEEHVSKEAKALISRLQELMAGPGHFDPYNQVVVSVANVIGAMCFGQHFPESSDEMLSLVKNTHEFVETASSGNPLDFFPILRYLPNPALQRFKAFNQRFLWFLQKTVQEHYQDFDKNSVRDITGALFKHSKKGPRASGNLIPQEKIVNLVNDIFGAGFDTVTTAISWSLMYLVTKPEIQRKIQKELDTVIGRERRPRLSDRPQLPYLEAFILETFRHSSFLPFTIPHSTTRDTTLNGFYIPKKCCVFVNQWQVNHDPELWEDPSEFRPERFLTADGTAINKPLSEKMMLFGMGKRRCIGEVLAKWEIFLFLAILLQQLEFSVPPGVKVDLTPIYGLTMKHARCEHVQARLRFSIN

Cytochrome P450 2C19 = Cytochrome P450 2C19 (Homo sapiens, UniProt P33261); assay: Inhibition of CYP2C19 (unknown origin); format: ADME
Cytochrome P450 3A4 = Cytochrome P450 3A4 (Homo sapiens, UniProt P08684); assay: Inhibition of CYP3A4 (unknown origin); format: ADME
Cytochrome P450 2C9 = Cytochrome P450 2C9 (Homo sapiens, UniProt P11712); assay: Inhibition of CYP2C9 (unknown origin); format: ADME
Lung = assay: Drug uptake in intratracheally dosed rat lung after 24 hrs; format: ADME, organism-based; conditions: in vivo, inhaled_or_intranasal
Rattus norvegicus [5] = assay: Antiinflammatory activity in rat assessed as inhibition of LPS-induced leukocyte influx to broncho-alveolar lavage fluid at 10 ug/kg, administered intratracheally 2 hrs prior to LPS challenge measured after 4 hrs relative to control; format: functional; conditions: inhaled or nasal
Rattus norvegicus [6] = assay: Antiinflammatory activity in rat assessed as inhibition of LPS-induced leukocyte influx to broncho-alveolar lavage fluid at 30 ug/kg, administered intratracheally 2 hrs prior to LPS challenge measured after 4 hrs relative to control; format: functional; conditions: inhaled or nasal
Rattus norvegicus [7] = assay: Antiinflammatory activity in rat assessed as inhibition of LPS-induced leukocyte influx to broncho-alveolar lavage fluid at 100 ug/kg, administered intratracheally 2 hrs prior to LPS challenge measured after 4 hrs relative to control; format: functional; conditions: inhaled or nasal
Rattus norvegicus [8] = assay: Antiinflammatory activity in rat assessed as inhibition of LPS-induced lung edema at 10 ug/kg, administered intratracheally 2 hrs prior to LPS challenge measured after 4 hrs relative to control; format: functional; conditions: inhaled or nasal
Rattus norvegicus [9] = assay: Antiinflammatory activity in rat assessed as inhibition of LPS-induced lung edema at 30 ug/kg, administered intratracheally 2 hrs prior to LPS challenge measured after 4 hrs relative to control; format: functional; conditions: inhaled or nasal
Rattus norvegicus [10] = assay: Antiinflammatory activity in rat assessed as inhibition of LPS-induced lung edema at 100 ug/kg, administered intratracheally 2 hrs prior to LPS challenge measured after 4 hrs relative to control; format: functional; conditions: inhaled or nasal
[11] = Thermodynamic solubility of the amorphous compound in 0.1 M phosphate buffer at pH 7.4 at 25 degC after 24 hrs; format: physicochemical; conditions: read-out: Therm_solubility
hERG (KCNH2) = hERG (KCNH2) (Homo sapiens, UniProt Q12809); assay: Inhibition of human ERG channel at 50 uM
Mus musculus [12] = assay: Antiinflammatory activity in mouse acute cigarette smoke model assessed as inhibition of neutrophil influx to broncho-alveolar lavage fluid at 10 ug/kg, administered intratracheally 30 mins prior to first cigarette smoke challenge every day for 4 days measured after 24 hrs post last cigarette smoke challenge relative to control; conditions: inhaled or nasal
Mus musculus [13] = assay: Antiinflammatory activity in mouse acute cigarette smoke model assessed as inhibition of neutrophil influx to broncho-alveolar lavage fluid at 30 ug/kg, administered intratracheally 30 mins prior to first cigarette smoke challenge every day for 4 days measured after 24 hrs post last cigarette smoke challenge relative to control; conditions: inhaled or nasal
Mus musculus [14] = assay: Antiinflammatory activity in mouse acute cigarette smoke model assessed as inhibition of neutrophil influx to broncho-alveolar lavage fluid at 100 ug/kg, administered intratracheally 30 mins prior to first cigarette smoke challenge every day for 4 days measured after 24 hrs post last cigarette smoke challenge relative to control; conditions: inhaled or nasal
Mus musculus [15] = assay: Antiinflammatory activity in mouse acute cigarette smoke model assessed as inhibition of neutrophil influx to broncho-alveolar lavage fluid at 300 ug/kg, administered intratracheally 30 mins prior to first cigarette smoke challenge every day for 4 days measured after 24 hrs post last cigarette smoke challenge relative to control; conditions: inhaled or nasal

Sequence of Cytochrome P450 2C9 (P11712 whole entry): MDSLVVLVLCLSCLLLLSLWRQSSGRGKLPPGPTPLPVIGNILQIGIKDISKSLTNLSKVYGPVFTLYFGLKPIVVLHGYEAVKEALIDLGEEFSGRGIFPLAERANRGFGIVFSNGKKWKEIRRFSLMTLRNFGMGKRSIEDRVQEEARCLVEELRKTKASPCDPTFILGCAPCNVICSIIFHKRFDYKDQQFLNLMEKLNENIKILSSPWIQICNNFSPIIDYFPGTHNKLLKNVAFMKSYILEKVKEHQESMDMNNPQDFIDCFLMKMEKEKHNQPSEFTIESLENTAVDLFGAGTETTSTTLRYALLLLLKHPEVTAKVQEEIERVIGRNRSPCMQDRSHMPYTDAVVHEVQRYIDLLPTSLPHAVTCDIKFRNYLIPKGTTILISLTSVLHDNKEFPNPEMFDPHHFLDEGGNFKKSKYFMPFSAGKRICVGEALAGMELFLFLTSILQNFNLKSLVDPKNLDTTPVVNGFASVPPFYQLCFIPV
Sequence of Cytochrome P450 2C19 (P33261 whole entry): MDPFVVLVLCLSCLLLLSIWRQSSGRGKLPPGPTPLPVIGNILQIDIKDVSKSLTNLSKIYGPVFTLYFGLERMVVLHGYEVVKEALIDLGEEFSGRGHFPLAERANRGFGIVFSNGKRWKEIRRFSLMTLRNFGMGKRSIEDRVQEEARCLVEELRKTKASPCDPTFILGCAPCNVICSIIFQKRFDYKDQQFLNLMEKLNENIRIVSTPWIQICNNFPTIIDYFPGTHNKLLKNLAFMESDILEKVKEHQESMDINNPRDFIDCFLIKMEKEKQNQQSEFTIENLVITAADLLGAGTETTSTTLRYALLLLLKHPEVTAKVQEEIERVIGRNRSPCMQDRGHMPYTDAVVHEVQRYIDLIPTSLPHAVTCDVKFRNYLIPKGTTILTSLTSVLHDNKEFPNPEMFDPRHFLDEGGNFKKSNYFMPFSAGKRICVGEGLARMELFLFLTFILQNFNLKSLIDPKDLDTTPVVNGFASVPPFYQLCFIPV
Sequence of Cytochrome P450 2D6 (P10635 whole entry): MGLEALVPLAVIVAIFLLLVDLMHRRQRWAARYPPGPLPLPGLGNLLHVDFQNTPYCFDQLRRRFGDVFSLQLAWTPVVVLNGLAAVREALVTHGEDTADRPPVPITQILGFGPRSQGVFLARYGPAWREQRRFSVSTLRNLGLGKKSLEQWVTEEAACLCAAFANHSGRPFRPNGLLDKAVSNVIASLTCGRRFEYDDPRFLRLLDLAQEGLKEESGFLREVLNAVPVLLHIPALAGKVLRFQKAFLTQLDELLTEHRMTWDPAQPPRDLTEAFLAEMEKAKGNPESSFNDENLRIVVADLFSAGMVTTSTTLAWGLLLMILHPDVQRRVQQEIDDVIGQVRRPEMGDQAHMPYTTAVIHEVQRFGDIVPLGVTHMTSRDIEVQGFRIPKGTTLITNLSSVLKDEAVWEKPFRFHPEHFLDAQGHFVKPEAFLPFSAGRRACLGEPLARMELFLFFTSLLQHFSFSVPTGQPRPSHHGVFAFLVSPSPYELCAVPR
Sequence of Cytochrome P450 3A4 (P08684 whole entry): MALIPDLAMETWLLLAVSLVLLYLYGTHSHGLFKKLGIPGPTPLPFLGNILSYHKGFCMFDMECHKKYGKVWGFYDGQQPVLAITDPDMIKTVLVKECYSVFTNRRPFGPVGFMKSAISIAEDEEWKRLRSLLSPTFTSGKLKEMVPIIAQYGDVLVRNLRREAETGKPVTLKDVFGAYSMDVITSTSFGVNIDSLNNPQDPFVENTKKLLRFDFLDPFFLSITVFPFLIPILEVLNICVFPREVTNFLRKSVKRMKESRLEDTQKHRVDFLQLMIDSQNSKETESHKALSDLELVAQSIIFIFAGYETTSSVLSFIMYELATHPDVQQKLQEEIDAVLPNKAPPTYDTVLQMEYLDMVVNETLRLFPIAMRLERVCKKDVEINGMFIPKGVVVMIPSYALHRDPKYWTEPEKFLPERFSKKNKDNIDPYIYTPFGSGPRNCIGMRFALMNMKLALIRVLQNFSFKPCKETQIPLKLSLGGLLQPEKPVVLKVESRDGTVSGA
Sequence of hERG (KCNH2) (Q12809 whole entry): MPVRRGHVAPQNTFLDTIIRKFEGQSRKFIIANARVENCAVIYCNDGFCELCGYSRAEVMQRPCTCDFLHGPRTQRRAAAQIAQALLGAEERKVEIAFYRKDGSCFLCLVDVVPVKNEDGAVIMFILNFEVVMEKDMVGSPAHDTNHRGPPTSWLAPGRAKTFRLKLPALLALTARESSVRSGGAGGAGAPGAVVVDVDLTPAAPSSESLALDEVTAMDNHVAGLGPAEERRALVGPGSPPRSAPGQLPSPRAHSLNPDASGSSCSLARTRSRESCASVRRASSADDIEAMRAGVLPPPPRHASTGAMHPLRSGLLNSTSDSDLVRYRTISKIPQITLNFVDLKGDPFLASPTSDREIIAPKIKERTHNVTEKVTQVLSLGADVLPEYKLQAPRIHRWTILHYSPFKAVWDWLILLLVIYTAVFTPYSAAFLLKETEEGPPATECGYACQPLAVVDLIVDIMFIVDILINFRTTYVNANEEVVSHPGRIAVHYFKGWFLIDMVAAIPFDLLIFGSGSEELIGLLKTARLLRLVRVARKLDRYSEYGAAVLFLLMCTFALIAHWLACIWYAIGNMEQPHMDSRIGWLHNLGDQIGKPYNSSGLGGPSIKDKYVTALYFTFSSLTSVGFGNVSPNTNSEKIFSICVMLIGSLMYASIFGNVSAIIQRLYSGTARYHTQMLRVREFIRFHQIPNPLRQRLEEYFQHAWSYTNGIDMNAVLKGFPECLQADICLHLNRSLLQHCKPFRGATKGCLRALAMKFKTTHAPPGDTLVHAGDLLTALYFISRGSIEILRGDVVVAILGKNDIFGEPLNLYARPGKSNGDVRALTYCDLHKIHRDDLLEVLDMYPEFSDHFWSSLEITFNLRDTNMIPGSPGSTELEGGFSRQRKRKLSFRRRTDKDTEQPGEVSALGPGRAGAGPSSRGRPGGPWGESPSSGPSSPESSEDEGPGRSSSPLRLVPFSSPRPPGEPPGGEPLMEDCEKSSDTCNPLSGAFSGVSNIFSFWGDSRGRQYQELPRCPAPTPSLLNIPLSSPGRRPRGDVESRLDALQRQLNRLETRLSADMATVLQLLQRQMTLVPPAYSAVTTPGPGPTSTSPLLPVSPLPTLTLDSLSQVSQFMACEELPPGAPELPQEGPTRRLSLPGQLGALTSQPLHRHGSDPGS

Cc1cc(C)c(S(=O)(=O)N[C@@H](C)CNc2cccc3c2cnn3-c2ccc(F)cc2)c(C)c1 gave a logD [1] of 4.1, an IC50 (Glucocorticoid receptor) of 0.0009 µM and an IC50 (Androgen receptor) of over 1 µM. It also gave a solubility thermodynamic at 24 h [2] of under 0.2 µM, a Fu (Plasma) of under 0.003% and a CLH (Hepatocyte [3]) of 13 µL/min. The CLH (Hepatocyte [4]) was 18 µL/min, the IC50 (Cytochrome P450 2D6) was over 20 µM and the IC50 (Cytochrome P450 1A2) was over 20 µM. It also gave an IC50 (Cytochrome P450 2C19) of over 20 µM, an IC50 (Cytochrome P450 3A4) of 10 µM and an IC50 (Cytochrome P450 2C9) of 7.9 µM. The Drug uptake (Lung) was 50%, the inhibition in vivo at 0.01 mg/kg (Rattus norvegicus [5]) was 37% and the inhibition in vivo at 0.03 mg/kg (Rattus norvegicus [6]) was 90%. For the same molecule, the inhibition in vivo at 0.1 mg/kg (Rattus norvegicus [7]) was 85%, the inhibition in vivo at 0.01 mg/kg (Rattus norvegicus [8]) was 32% and the inhibition in vivo at 0.03 mg/kg (Rattus norvegicus [9]) was 42%. It also gave an inhibition in vivo at 0.1 mg/kg (Rattus norvegicus [10]) of 56%, a solubility thermodynamic at 24 h [11] of under 0.43 µM and an inhibition at 50 µM (hERG (KCNH2)) of under 25%. For the same molecule, the inhibition in vivo at 0.01 mg/kg (Mus musculus [12]) was 0%, the inhibition in vivo at 0.03 mg/kg (Mus musculus [13]) was 36% and the inhibition in vivo at 0.1 mg/kg (Mus musculus [14]) was 23%.

In the case of CCCC1O[C@@H]2C[C@H]3[C@@H]4CCC5=CC(=O)C=C[C@]5(C)[C@H]4[C@@H](O)C[C@]3(C)[C@]2(C(=O)CO)O1 (stereo not given in full) [BUDESONIDE], the inhibition in vivo at 0.3 mg/kg (Mus musculus [15]) is reported as 38%.

From ChEMBL document CHEMBL3259563, “The discovery of potent and selective non-steroidal glucocorticoid receptor modulators, suitable for inhalation” (Bioorg Med Chem Lett, 2014)
